The source of these data is publication PMC8482776 (ACS Omega, 2021).

For data set [1], the system named is human red blood cells (hRBCs). In words: Hemolysis assay. The settings on record: positive control, 2 h at 37 °C. It is filed as cell-based.
For data set [2], the system named is Microsporum gypseum (PTCC 5070). Description: Microdilution MIC90, strain L. The following applies: filamentous fungi, 48 h at 37 °C, triplicate. It is filed as cell-based. (In general: Broth dilution looks for growth in wells or tubes with falling amounts of substance.)
In the next data set the test system is T. rubrum (PTCC 5143). Description: Microdilution MIC90, strain K. In kind it is cell-based, Trichophyton rubrum. The settings on record: filamentous fungi, 48 h at 37 °C, triplicate.
The test system of another data set is Asp. terreus (PTCC 5023). Description: Microdilution MIC90, strain J. In kind it is cell-based, Aspergillus terreus. The following applies: Aspergillus terreus, PTCC5023, 48 h, filamentous fungi, 48 h at 37 °C, triplicate.
Data set [3] concerns T. schoenleinii (PTCC 5221). In words: Microdilution MIC90, strain N. The settings on record: Trichophyton schoenleinii, PTCC5221, 48 h. In kind it is cell-based.
For another data set, the system named is C. krusei (ATCC 6258). In words: Microdilution MIC90, strain B. In kind it is cell-based. The settings on record: for MIC90: yeast, 24 h at 37 °C, triplicate.
Data set [4] concerns C. parapsilosis (ATCC 22019). In words: Microdilution MIC90, strain D. In kind it is cell-based. The settings on record: 24 h.
Data set [5] has as its system Asp. fumigatus (PTCC 5009). In words: Microdilution MIC90, strain H. The settings on record: Aspergillus fumigatus, PTCC5009, 48 h, filamentous fungi, 48 h at 37 °C, triplicate. In kind it is cell-based.
Data set [6] relates to Asp. flavus (ATCC 204304). In words: Microdilution MIC90, strain G. In kind it is cell-based, Aspergillus flavus. The settings on record: filamentous fungi, 48 h at 37 °C, triplicate.
The test system of the next data set is Asp. niger (PTCC 5154). In words: Microdilution MIC90, strain I. It is filed as cell-based, Aspergillus niger. The following applies: Aspergillus niger, PTCC5154, 48 h, filamentous fungi, 48 h at 37 °C, triplicate.
Data set [7] has as its system T. mentagrophytes (PTCC 5054). Description: Microdilution MIC90, strain M. In kind it is cell-based. The following applies: Trichophyton mentagrophytes, PTCC5054, 48 h.
The subject of a further data set is M. canis (PTCC 5069). Description: Microdilution MIC90, strain O. The following applies: Microsporum canis, PTCC5069, 48 h. It is filed as cell-based.
Data set [8] relates to C. albicans (ATCC 10231). In words: Microdilution MIC90, strain A. The settings on record: for MIC90: yeast, 24 h at 37 °C, triplicate. It is filed as cell-based.
The subject of data set [9] is C. tropicalis (PTCC 5028). Description: Microdilution MIC90, strain E. It is filed as cell-based. The settings on record: 24 h.
The subject of data set [10] is Asp. nidulans (PTCC 5014). In words: Microdilution MIC90, strain F. In kind it is cell-based, Aspergillus nidulans. The following applies: filamentous fungi, 48 h at 37 °C, triplicate.
Data set [11] concerns C. albicans (ATCC 10231). In words: Murine model of systemic candidiasis. In kind it is in vivo. The following applies: neutropenic mice (n = 5), 15 mg/kg oral gavage, left kidney tissue.
The next data set concerns C. glabrata (ATCC 90030). Description: Microdilution MIC90, strain C. The settings on record: yeast, 24 h at 37 °C, triplicate. In kind it is cell-based.
The test system of data set [12] is C. albicans (ATCC 10231). Description: Membrane permeabilization assay. The following applies: 8b, 8c at 1 × MIC, 2 × MIC, 4 × MIC (0.5, 1, 2 μg/mL); AMB 1 μg/mL; 3 h at 28 °C. It is filed as cell-based.
[13] abbreviates: Trichophyton rubrum, PTCC5143, 48 h.
Where [14] appears, read: Aspergillus flavus, ATCC204304, 48 h.
Setting [15] is: Aspergillus nidulans, PTCC5014, 48 h.

≈ marks a conversion by molar mass, not a printed value. Where “and” joins values, the source holds several entries; their conditions need not be identical. Identical values can stand only once.

As usually defined, the MIC is the lowest concentration found to suppress growth.

In data set [1], Triton X-100 [reference compound] showed a hemolysis of 86.2%.
With `Cc1ccc(NC(=O)Nc2nnc(SCC(O)(Cn3cncn3)c3ccc(F)cc3F)s2)cc1` (stereo not shown) [Compound 8e, 1-(5-((2-(2,4-Difluorophenyl)-2-hydroxy-3-(1H-1,2,4-triazol-1-yl)propyl)thio)-1,3,4-thiadiazol-2-yl)-3-(p-tolyl)urea], the MIC90 in data set [2] was determined as 2 μg·mL^–1; against T. rubrum (PTCC 5143) (setting [13]), 8 mg/L (≈ 15.9 µM); against Asp. terreus (PTCC 5023), 16 mg/L (≈ 31.8 µM); in [3], 8 mg/L (≈ 15.9 µM); in the data set with C. krusei (ATCC 6258) (24 h) it was 0.5 mg/L (≈ 0.993 µM); against C. krusei (ATCC 6258), 1 μg·mL^–1. Also, the MIC90 in data set [4] worked out at 8 mg/L (≈ 15.9 µM); in [5] it was 16 mg/L (≈ 31.8 µM); in data set [6] (setting [14]), 8 mg/L (≈ 15.9 µM); against Asp. niger (PTCC 5154), 16 mg/L (≈ 31.8 µM); in data set [7], 32 mg/L (≈ 63.5 µM); in the data set with M. canis (PTCC 5069), 16 mg/L (≈ 31.8 µM). Moreover, the MIC90 in the data set with C. albicans (ATCC 10231) [8] (24 h, strain A) was 0.5 mg/L (≈ 0.993 µM); with C. albicans (ATCC 10231) [8] (strain A), 1 μg·mL^–1; in data set [9], 16 mg/L (≈ 31.8 µM); in data set [10] (setting [15]) it was 2 to 4 mg/L (≈ 3.97 to 7.94 µM); in [10], 4 μg·mL^–1. The “fold greater potency than that of FLC” value came to 32 fold in the data set with C. krusei (ATCC 6258) (from MIC values) and 32 fold in the data set with C. albicans (ATCC 10231) [8] (strain A, from MIC values).
On to `C[C@@H](c1ncncc1F)[C@](O)(Cn1cncn1)c1ccc(F)cc1F` [VOR, voriconazole, reference compound], for which, in the data set with C. albicans (ATCC 10231) [11], the “kidney fungal burden, CFU/g (mean ± SD)” value was 318 CFU/g and 318 ± 66.5 ^b CFU/g.
As to `O=C(Nc1cccc(F)c1)Nc1nnc(SCC(O)(Cn2cncn2)c2ccc(F)cc2F)s1` (stereo not shown) [Compound 8g, 1-(5-((2-(2,4-Difluorophenyl)-2-hydroxy-3-(1H-1,2,4-triazol-1-yl)propyl)thio)-1,3,4-thiadiazol-2-yl)-3-(3-fluorophenyl)urea], the MIC90 in data set [2] was 4 μg·mL^–1; in the data set on T. rubrum (PTCC 5143) (setting [13]), 4 mg/L (≈ 7.88 µM); in the data set on Asp. terreus (PTCC 5023) it was 32 mg/L (≈ 63.1 µM); in data set [3], 8 mg/L (≈ 15.8 µM); in the data set on C. krusei (ATCC 6258) (24 h), 2 mg/L (≈ 3.94 µM); in the data set on C. glabrata (ATCC 90030) (24 h) it was 1 to 16 mg/L (≈ 1.97 to 31.5 µM). In addition, the MIC90 in the data set with C. glabrata (ATCC 90030) is 1 μg·mL^–1; in [4], 0.5 mg/L (≈ 0.985 µM); in [5], 16 mg/L (≈ 31.5 µM); in data set [6] (setting [14]), 2 to 4 mg/L (≈ 3.94 to 7.88 µM); in data set [6], 4 μg·mL^–1; with Asp. niger (PTCC 5154) it was 16 mg/L (≈ 31.5 µM). Besides, the MIC90 in [7] worked out at 16 mg/L (≈ 31.5 µM); against M. canis (PTCC 5069) it was 8 mg/L (≈ 15.8 µM); in the data set with C. albicans (ATCC 10231) [8] (24 h, strain A), 2 mg/L (≈ 3.94 µM); in data set [9], 16 mg/L (≈ 31.5 µM); in [10] (setting [15]) it was 8 mg/L (≈ 15.8 µM).
Regarding `O=C(Nc1nnc(SCC(O)(Cn2cncn2)c2ccc(F)cc2F)s1)Nc1ccc(F)cc1F` (stereo not shown) [Compound 8p, 1-(2,4-Difluorophenyl)-3-(5-((2-(2,4-difluorophenyl)-2-hydroxy-3-(1H-1,2,4-triazol-1-yl)propyl)thio)-1,3,4-thiadiazol-2-yl)urea], the MIC90 was found to be 4 μg·mL^–1 in data set [2]; 16 mg/L (≈ 30.4 µM) against T. rubrum (PTCC 5143) (setting [13]); 16 mg/L (≈ 30.4 µM) in the data set on Asp. terreus (PTCC 5023); 16 mg/L (≈ 30.4 µM) in data set [3]; 32 mg/L (≈ 60.9 µM) in the data set with C. glabrata (ATCC 90030) (24 h); 8 mg/L (≈ 15.2 µM) in data set [4]. The MIC90 in data set [6] (setting [14]) was 2 to 4 mg/L (≈ 3.81 to 7.61 µM); in data set [6] it was 4 μg·mL^–1; in [7], 16 mg/L (≈ 30.4 µM); against M. canis (PTCC 5069) it was 16 mg/L (≈ 30.4 µM); in [9] it was 32 mg/L (≈ 60.9 µM); in data set [10] (setting [15]), 8 mg/L (≈ 15.2 µM).
As to `C[C@@H]1[C@H](O)[C@@H](C)/C=C/C=C/C=C/C=C/C=C/C=C/C=C/[C@H](O[C@@H]2O[C@H](C)[C@@H](O)[C@H](N)[C@@H]2O)C[C@@H]2O[C@](O)(C[C@@H](O)C[C@@H](O)[C@H](O)CC[C@@H](O)C[C@@H](O)CC(=O)O[C@H]1C)C[C@H](O)[C@H]2C(=O)O` [AMB, amphotericin B, reference compound], in the data set on C. albicans (ATCC 10231) [12], the “cellular uptake of the PI dye” value is reported as “increased the PI dye uptake”. This molecule also showed an MIC in the data set on C. albicans (ATCC 10231) [8] (Candida albicans, ATCC10231) of 1 mg/L (≈ 1.08 µM).
For `Cc1ccc(NC(=O)Nc2nnc(SCC(O)(Cn3cncn3)c3ccc(F)cc3F)s2)cc1Cl` (stereo not shown) [Compound 8r, 1-(3-Chloro-4-methylphenyl)-3-(5-((2-(2,4-difluorophenyl)-2-hydroxy-3-(1H-1,2,4-triazol-1-yl)propyl)thio)-1,3,4-thiadiazol-2-yl)urea], the MIC90 was 4 μg·mL^–1 in data set [2]; 2 to 4 mg/L (≈ 3.72 to 7.43 µM) against T. rubrum (PTCC 5143) (setting [13]); 4 μg·mL^–1 against T. rubrum (PTCC 5143); 16 mg/L (≈ 29.7 µM) against Asp. terreus (PTCC 5023); 32 mg/L (≈ 59.5 µM) in [3]; 32 mg/L (≈ 59.5 µM) with C. krusei (ATCC 6258) (24 h). The MIC90 was 32 mg/L (≈ 59.5 µM) against C. glabrata (ATCC 90030) (24 h); 16 mg/L (≈ 29.7 µM) in data set [4]; 32 mg/L (≈ 59.5 µM) in data set [5]; 2 to 4 mg/L (≈ 3.72 to 7.43 µM) in data set [6] (setting [14]); 4 μg·mL^–1 in data set [6]; 32 mg/L (≈ 59.5 µM) against Asp. niger (PTCC 5154). Moreover, the MIC90 in data set [7] was found to be 16 mg/L (≈ 29.7 µM); against M. canis (PTCC 5069), 32 mg/L (≈ 59.5 µM); with C. albicans (ATCC 10231) [8] (24 h, strain A), 64 mg/L (≈ 119 µM); in data set [9], 64 mg/L (≈ 119 µM); in [10] (setting [15]), 8 mg/L (≈ 14.9 µM).
In the case of `O=C(Nc1ccccc1)Nc1nnc(SCC(O)(Cn2cncn2)c2ccc(F)cc2F)s1` (stereo not shown) [Compound 8o, 1-(5-((2-(2,4-Difluorophenyl)-2-hydroxy-3-(1H-1,2,4-triazol-1-yl)propyl)thio)-1,3,4-thiadiazol-2-yl)-3-phenylurea], the MIC90 in [2] was 4 μg·mL^–1; against T. rubrum (PTCC 5143) (setting [13]) it was 2 to 4 mg/L (≈ 4.09 to 8.17 µM); in the data set on T. rubrum (PTCC 5143), 4 μg·mL^–1; in the data set with Asp. terreus (PTCC 5023) it was 8 mg/L (≈ 16.3 µM); in data set [3], 16 mg/L (≈ 32.7 µM); against C. krusei (ATCC 6258) (24 h), 32 mg/L (≈ 65.4 µM). For the same molecule, the MIC90 in the data set on C. glabrata (ATCC 90030) (24 h) amounted to 32 mg/L (≈ 65.4 µM); in data set [4], 8 mg/L (≈ 16.3 µM); in data set [5], 32 mg/L (≈ 65.4 µM); in [6] (setting [14]) it was 8 mg/L (≈ 16.3 µM); against Asp. niger (PTCC 5154), 32 mg/L (≈ 65.4 µM); in data set [7], 16 mg/L (≈ 32.7 µM). The MIC90 against M. canis (PTCC 5069) is 16 mg/L (≈ 32.7 µM); in data set [9], 16 mg/L (≈ 32.7 µM); in data set [10] (setting [15]), 2 to 4 mg/L (≈ 4.09 to 8.17 µM); in data set [10] it was 2 μg·mL^–1.
